Results reported in patent publication US11833204B2, “Visible light-activatable nanoparticles for cancer immunotherapy and use thereof” (KOREA INSTITUTE OF SCIENCE AND TECHNOLOGY, priority 2021, dated 2023).

Legend:
CT26 cells [1] = experiment: Immunogenic cell death: calreticulin expression; format: cell-based; conditions: CT26, 5 μM, 24 h, +L/−L
Procedure: (§1) First, CT26 cells were plated in 35 mm cell culture dishes at a density of 1×10^5 cells/dish and doxorubicin (DOX) (5 μM), verteporfin (VPF) (5 μM) or the self-assembled nanoparticles (LT-NPs) (5 μM) were added to each dish. After 24-h culture, one half was exposed by irradiation with visible light using a 671 nm laser at 40 mW for 250 sec (+L) and the other half was not irradiated with visible light for comparison (−L). The immunogenic cell death of the self-assembled nanoparticles (LT-NPs) was evaluated using the cells and the cell culture media.
Cells were stained with APC-conjugated CRT antibody for 12 h and observed with a confocal fluorescence microscope.

CT26 cells [2] = experiment: Immunogenic cell death: extracellular ATP release; format: cell-based; conditions: CT26, 5 μM, 24 h, +L/−L
Procedure: as §1
ATP was analyzed using a commercially available ATP assay kit (Beyotime Biotechnology) according to the manufacturer's protocol.

H9C2 cells = experiment: Intracellular behaviour in H9C2 cardiomyocytes (confocal microscopy); format: cell-based; conditions: H9C2, 5 μM, 24 h
Procedure: (§2) The following experiment was conducted to evaluate the intracellular behaviors of the self-assembled nanoparticles (LT-NPs). First, 1×10^5 CT26 cells or H9C2 cells were plated in a 35 mm cell culture dish, treated with the self-assembled nanoparticles (LT-NPs, 5 μM) prepared in Example 1, and cultured for 24 h. Thereafter, cells were washed with Dulbecco's PBS (DPBS), fixed in 4% formaldehyde for 10 min, stained with 4′,6-diamidino-2-phenylindole (DAPI) for 5 min, and analyzed with a Leica TCS SP8 confocal microscope (Leica Microsystems GmbH).

CT26 cells [3] = experiment: Apoptosis and necrosis of CT26 cells (Annexin V/PI flow cytometry); format: cell-based; conditions: CT26, visible light
Procedure: The degrees of apoptosis and necrosis of cancer cells were quantitatively analyzed to accurately evaluate the anticancer effect of the self-assembled nanoparticles (LT-NPs). First, CT26 cells treated with doxorubicin (DOX), verteporfin (VPF), a mixture of doxorubicin and verteporfin (VPF+DOX) or the self-assembled nanoparticles (LT-NPs) and a laser were prepared as above and treated with 5 μg of Annexin V-FITC and 10 μg of PI solution for 10 min. Then, cells were cultured with a cell fixative for 10 min and further cultured with DAPI for 20 min. The degrees of apoptosis and necrosis were quantitatively analyzed using a flow cytometer (BD FACSVerse, BD bioscience, USA).

CT26 cells [4] = experiment: Intracellular behaviour in CT26 cancer cells (confocal microscopy); format: cell-based
Procedure: as §2

CT26 cells [5] = experiment: CT26 cell viability (CCK) after visible light irradiation; format: cell-based; conditions: CT26, 0-10 μM, 24 h, 671 nm laser 40 mW 250 sec
Procedure: After CT26 cells were plated in a 96-well plate at a density of 5×10^3 cells/well, the wells were treated with doxorubicin (DOX) (0, 0.01, 0.1, 1, and or 10 μM), verteporfin (VPF) (0, 0.01, 0.1, 1, and 10 μM), mixtures thereof (DOX+VPF), and the self-assembled nanoparticles (LT-NPs) (0, 0.01, 0.1, 1, and 10 μM). After culture for 24 h, cells were exposed by irradiation with visible light using a 671 nm laser at 40 mW for 250 sec. Then, a cell culture medium containing […] of CCK solution was added to each well. Cells were further cultured for 20 min and the absorbance of the 96-well plate was measured at 450 nm on a VERSAmax™ microplate reader (Molecular Devices Corp., Sunnyvale, Calif.).

CT26 cells [6] = experiment: Immunogenic cell death: extracellular HSP70 and HMGB1 (Western blotting); format: cell-based; conditions: CT26, 5 μM, 24 h, +L/−L
Procedure: as §1
Before staining the cells with APC-conjugated CRT antibody, culture media were separated from the cells and the extracellular expression levels of HMGB1 and HSP70 were analyzed by Western blotting.
Each cell culture medium was treated with RIPA buffer (Cell Signaling Technology) at 4° C. for 30 min and the protein amount of the lysate was analyzed using a Pierce BCA protein assay kit (Thermo Fisher Scientific) according to the manufacturer's protocol. After SDS-PAGE, proteins were transferred to a PVDF membrane (Bio-Rad), which was then treated with Tris-buffered saline (TBS-T) containing 5% skim milk and 0.1% Tween-20. The membrane was incubated with primary antibodies at 4° C. overnight. HSP70 and HMGB1 antibodies were used as the primary antibodies. The membrane was washed with TBS-T and incubated with a secondary antibody at room temperature for 1 h. The membrane was washed with TBS-T, treated with EZ-Western Lumi Pico or Femto reagent (DoGen), and analyzed using Fusion-Solo software (Vilber) according to the manufacturer's protocol to determine band intensities.

[7] = Morphological analysis by transmission electron microscopy in saline; format: physicochemical; conditions: 1 mg in 1 mL physiological saline
Procedure: (§3) The self-assembled nanoparticles (LT-NPs) prepared in Example 1, doxorubicin (DOX), and verteporfin (VPF) were used as samples. 1 mg of each sample was mixed with physiological saline (1 mL). […] The self-assembled nanoparticles (LT-NPs) were mixed with cathepsin B (Cat-B) protease (50 μg/mL). The mixture was allowed to react for 24 h.

[8] = Size analysis of LT-NPs by dynamic light scattering; format: physicochemical; conditions: 1 mg/mL in saline, DLS
Procedure: The self-assembled nanoparticles (LT-NPs) prepared in Example 1 were diluted with saline to a concentration of 1 mg/mL and their particle size was analyzed by dynamic light scattering (DLS; Zetasizer Nano ZS, Malvern Instruments).

cathepsin B = cathepsin B (Homo sapiens, UniProt P07858); experiment: Cleavage of LT-NPs by cathepsin B (RP-HPLC, fluorescence, TEM); format: biochemical
Procedure: as §3
In this example, the activation of the self-assembled nanoparticles (LT-NPs) by cathepsin B (Cat-B) was determined. To this end, an experimental sample and a comparative sample were prepared and allowed to react in an incubator at 37° C. Specific cleavages by cathepsin B were evaluated at reaction times of 0, 9, and 24 h by reversed phase high-performance liquid chromatography (RT-HPLC).
Experimental sample (Cat-B): The self-assembled nanoparticles (LT-NPs) (10 μM) prepared in Example 1 were mixed with a 2-(N-morpholine)-ethanesulphonic acid (MES) buffer (200 μL) containing cathepsin B (10 μg).
Comparative sample (Cat-B+inhibitor): The self-assembled nanoparticles (LT-NPs) (10 μM) prepared in Example 1 were mixed with a 2-(N-morpholine)-ethanesulphonic acid (MES) buffer (200 μL) containing cathepsin B (10 μg) and a cathepsin B inhibitor (Z-FA-FMK, 50 μM).

C=CC1=C(C)/C2=C/C3=NC(Cc4[nH]c(c(CCCCC(=O)OC)c4C)CC4N=C(CC1N2)C(C)=C4CCC(=O)N[C@H](Cc1ccccc1)C(=O)N[C@@H](CCCNC(=N)N)C(=O)N[C@H](CCCNC(=N)N)C(=O)NCC(=O)NC1C[C@@H](OC2C[C@](O)(C(=O)CO)Cc4c(O)c5c(c(O)c42)C(=O)c2c(OC)cccc2C5=O)O[C@@H](C)[C@H]1O)[C@@]1(C)C3=CC=C(C(=O)OC)[C@@H]1C(=O)OC (some centres unmarked) [LT-NPs, VPF-FRRG(SEQ ID NO: 1)-DOX]
calreticulin expression (CT26 cells [1]): Significantly higher | ATP release (CT26 cells [2]): significantly higher | presence in cells (H9C2 cells): observed in both cardiomyocytes (H9C2) and cancer cells (CT26) | state in normal cells (H9C2 cells): in a stable state in normal cells | degree of apoptosis (and necrosis) (CT26 cells [3]): significantly higher than that caused by the conventional drugs | proportions of early apoptosis, late apoptosis and necrosis (CT26 cells [3]): lower proportions of late apoptosis and necrosis and a higher proportion of early apoptosis | degree of apoptosis (and necrosis) (CT26 cells [3]; listed as self-assembled nanoparticles): significantly higher apoptosis and necrosis | intracellular cleavage into doxorubicin and verteporfin (CT26 cells [4]; CT26, 5 μM, 24 h): cleaved specifically to cancer cells | presence in cells (CT26 cells [4]; CT26, 5 μM, 24 h): observed in both cardiomyocytes (H9C2) and cancer cells (CT26) | intracellular degradation with cathepsin B inhibitor (CT26 cells [4]; CT26 treated with cathepsin B inhibitor): not degraded and remained stable in the cytoplasm | cell viability versus doxorubicin and verteporfin (CT26 cells [5]): no significant differences | HMGB-1 release (CT26 cells [6]): significantly higher | HSP70 release (CT26 cells [6]): significantly higher | morphology in physiological saline (TEM) [7]: dispersed without aggregation in saline | average particle diameter [8]: 87 nm | cleavage by cathepsin B (cathepsin B; 10 μM, cathepsin B 10 μg in MES buffer, 37° C., RP-HPLC and fluorescence): cleaved by cathepsin B to release doxorubicin and the photosensitizer | morphology after reaction with cathepsin B (TEM) (cathepsin B; Cat-B 50 μg/mL, 24 h): degraded by cathepsin B
